Laboratory results reported in patent US20260234129A1, “NOVEL IMIDAZOLE DERIVATIVE AND USE THEREOF” (PELEMED CO., LTD., priority 2023, published 2026).

Key:
Test in all cases: scanMax kinase panel (Eurofins)
Format in all cases: binding
ABL1-phosphorylated = molecular target: T1, ABL1-phosphorylated (Homo sapiens, UniProt P00519); conditions: read-out: % control
T1 construct: purchased Eurofins
Procedure: (§1) The following assay method was performed to evaluate the inhibitory activities of a compound according to the present invention with respect to various enzymes. […] The compound was applied to the enzyme at a concentration of 1 μM, dissolved in DMSO, and the % control was determined according to Equation 1 below.
(§2) Here, the positive control refers to a compound corresponding to 0% control, and the negative control refers to a compound corresponding to 100% control.

IRAK4 = molecular target: T2, IRAK4 (Homo sapiens, UniProt Q9NWZ3); conditions: IRAK4, 1 μM; read-out: % control
T2 construct: purchased Eurofins
T2 sequence (Q9NWZ3 whole entry): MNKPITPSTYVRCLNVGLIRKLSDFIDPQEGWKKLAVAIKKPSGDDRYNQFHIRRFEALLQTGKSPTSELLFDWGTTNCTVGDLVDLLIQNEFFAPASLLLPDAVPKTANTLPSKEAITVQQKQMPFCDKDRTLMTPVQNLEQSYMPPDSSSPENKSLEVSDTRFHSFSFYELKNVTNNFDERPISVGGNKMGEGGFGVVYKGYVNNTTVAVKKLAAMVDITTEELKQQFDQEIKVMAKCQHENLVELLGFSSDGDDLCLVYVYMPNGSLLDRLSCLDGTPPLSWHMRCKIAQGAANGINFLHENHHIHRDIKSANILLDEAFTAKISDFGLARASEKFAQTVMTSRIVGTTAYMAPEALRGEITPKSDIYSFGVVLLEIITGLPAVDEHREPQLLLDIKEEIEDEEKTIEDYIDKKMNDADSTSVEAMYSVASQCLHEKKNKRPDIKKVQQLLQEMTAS
Procedure: as §1, §2

IRAK3 = molecular target: T3, IRAK3 (Homo sapiens, UniProt Q9Y616); conditions: IRAK3, 1 μM; read-out: % control
T3 construct: purchased Eurofins
Procedure: as §1, §2

GSK3B = molecular target: T4, GSK3B (Homo sapiens, UniProt P49841); conditions: read-out: % control
T4 construct: purchased Eurofins scanMax® kinase panel
T4 sequence (P49841 whole entry): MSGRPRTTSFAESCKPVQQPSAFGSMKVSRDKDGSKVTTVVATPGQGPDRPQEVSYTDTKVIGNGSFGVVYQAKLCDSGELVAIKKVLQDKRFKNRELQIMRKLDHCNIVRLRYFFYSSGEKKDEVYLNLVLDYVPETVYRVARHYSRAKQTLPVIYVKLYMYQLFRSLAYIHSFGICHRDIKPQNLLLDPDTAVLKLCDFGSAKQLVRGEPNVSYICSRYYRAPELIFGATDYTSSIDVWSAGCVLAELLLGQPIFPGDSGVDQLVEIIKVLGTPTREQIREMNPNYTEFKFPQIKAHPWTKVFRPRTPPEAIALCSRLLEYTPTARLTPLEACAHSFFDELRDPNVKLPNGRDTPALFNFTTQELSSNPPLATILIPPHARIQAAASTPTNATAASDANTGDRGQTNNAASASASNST
Procedure: as §1, §2

[1] = molecular target: T5, ABL1(F317L)-phosphorylated (Homo sapiens, UniProt P00519, F317L); conditions: read-out: % control
T5 construct: purchased Eurofins
Procedure: as §1, §2

HIPK3 = molecular target: T6, HIPK3 (Homo sapiens, UniProt Q9H422); conditions: HIPK3, 1 μM; read-out: % control
T6 construct: purchased Eurofins
Procedure: as §1, §2

PAK3 = molecular target: T7, PAK3 (Homo sapiens, UniProt O75914); conditions: PAK3, 1 μM; read-out: % control
T7 construct: purchased Eurofins scanMax kinase panel
T7 sequence (O75914 whole entry): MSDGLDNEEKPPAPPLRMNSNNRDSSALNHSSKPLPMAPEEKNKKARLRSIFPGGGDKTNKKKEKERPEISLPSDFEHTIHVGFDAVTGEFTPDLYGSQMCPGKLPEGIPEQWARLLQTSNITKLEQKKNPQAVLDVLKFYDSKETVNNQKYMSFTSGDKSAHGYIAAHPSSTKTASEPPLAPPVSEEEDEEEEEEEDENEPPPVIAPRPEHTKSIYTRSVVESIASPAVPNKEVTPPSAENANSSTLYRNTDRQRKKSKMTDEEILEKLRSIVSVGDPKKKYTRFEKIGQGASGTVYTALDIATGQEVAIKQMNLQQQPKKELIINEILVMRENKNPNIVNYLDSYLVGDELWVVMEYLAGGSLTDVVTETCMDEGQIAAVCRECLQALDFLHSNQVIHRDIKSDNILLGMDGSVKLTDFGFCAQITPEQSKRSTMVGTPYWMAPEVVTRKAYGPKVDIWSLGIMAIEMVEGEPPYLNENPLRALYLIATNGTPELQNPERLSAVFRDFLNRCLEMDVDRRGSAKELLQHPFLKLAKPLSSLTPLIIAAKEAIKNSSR
Procedure: as §1, §2

TRKB = molecular target: T8, TRKB (Homo sapiens, UniProt Q16620); conditions: read-out: % control
T8 construct: purchased Eurofins scanMax kinase panel
Procedure: as §1, §2

DYRK2 = molecular target: T9, DYRK2 (Homo sapiens, UniProt Q92630); conditions: DYRK2, 1 μM; read-out: % control
T9 construct: purchased Eurofins scanMax® kinase panel
T9 sequence (Q92630 whole entry): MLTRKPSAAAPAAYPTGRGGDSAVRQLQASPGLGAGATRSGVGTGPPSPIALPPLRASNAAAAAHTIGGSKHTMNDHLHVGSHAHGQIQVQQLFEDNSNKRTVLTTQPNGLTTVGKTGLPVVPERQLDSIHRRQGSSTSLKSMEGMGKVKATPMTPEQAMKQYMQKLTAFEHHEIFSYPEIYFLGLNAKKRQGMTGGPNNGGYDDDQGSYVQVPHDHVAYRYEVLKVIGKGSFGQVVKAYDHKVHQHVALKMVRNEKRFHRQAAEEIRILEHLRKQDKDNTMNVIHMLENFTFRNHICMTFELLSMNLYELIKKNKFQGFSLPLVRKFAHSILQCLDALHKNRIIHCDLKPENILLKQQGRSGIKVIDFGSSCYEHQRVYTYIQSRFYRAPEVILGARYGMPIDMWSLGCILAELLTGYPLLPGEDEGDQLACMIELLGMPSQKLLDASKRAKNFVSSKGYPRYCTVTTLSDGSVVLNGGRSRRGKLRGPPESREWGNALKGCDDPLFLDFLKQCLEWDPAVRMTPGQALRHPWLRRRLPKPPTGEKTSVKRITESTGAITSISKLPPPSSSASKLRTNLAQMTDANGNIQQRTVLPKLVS
Procedure: as §1, §2

[2] = molecular target: T10, ABL1(E255K)-phosphorylated (Homo sapiens, UniProt P00519, E255K); conditions: read-out: % control
T10 construct: purchased Eurofins
Procedure: as §1, §2

ROCK2 = molecular target: T11, ROCK2 (Homo sapiens, UniProt O75116); conditions: ROCK2, 1 μM; read-out: % control
T11 construct: purchased Eurofins scanMax kinase panel
Procedure: as §1, §2

GSK3A = molecular target: T12, GSK3A (Homo sapiens, UniProt P49840); conditions: read-out: % control
T12 construct: purchased Eurofins scanMax® kinase panel
T12 sequence (P49840 whole entry): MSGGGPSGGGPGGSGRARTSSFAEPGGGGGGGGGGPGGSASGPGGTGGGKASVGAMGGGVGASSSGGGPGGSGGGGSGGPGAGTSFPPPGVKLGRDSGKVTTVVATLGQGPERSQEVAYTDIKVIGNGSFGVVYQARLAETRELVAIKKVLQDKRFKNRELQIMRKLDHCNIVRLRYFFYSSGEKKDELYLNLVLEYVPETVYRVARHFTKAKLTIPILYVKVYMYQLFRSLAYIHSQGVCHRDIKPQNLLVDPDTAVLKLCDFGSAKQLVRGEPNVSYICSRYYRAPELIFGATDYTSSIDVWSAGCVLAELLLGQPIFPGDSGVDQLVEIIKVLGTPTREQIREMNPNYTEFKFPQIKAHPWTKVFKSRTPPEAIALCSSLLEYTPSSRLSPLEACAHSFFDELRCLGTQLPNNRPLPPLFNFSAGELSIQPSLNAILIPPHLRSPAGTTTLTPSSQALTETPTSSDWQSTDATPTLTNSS
Procedure: as §1, §2

[3] = molecular target: T13, ABL1(Q252H)-phosphorylated (Homo sapiens, UniProt P00519, Q252H); conditions: read-out: % control
T13 construct: purchased Eurofins
Procedure: as §1, §2

TRKA = molecular target: T14, TRKA (Homo sapiens, UniProt P04629); conditions: read-out: % control
T14 construct: purchased Eurofins scanMax kinase panel
T14 sequence (P04629 33-796): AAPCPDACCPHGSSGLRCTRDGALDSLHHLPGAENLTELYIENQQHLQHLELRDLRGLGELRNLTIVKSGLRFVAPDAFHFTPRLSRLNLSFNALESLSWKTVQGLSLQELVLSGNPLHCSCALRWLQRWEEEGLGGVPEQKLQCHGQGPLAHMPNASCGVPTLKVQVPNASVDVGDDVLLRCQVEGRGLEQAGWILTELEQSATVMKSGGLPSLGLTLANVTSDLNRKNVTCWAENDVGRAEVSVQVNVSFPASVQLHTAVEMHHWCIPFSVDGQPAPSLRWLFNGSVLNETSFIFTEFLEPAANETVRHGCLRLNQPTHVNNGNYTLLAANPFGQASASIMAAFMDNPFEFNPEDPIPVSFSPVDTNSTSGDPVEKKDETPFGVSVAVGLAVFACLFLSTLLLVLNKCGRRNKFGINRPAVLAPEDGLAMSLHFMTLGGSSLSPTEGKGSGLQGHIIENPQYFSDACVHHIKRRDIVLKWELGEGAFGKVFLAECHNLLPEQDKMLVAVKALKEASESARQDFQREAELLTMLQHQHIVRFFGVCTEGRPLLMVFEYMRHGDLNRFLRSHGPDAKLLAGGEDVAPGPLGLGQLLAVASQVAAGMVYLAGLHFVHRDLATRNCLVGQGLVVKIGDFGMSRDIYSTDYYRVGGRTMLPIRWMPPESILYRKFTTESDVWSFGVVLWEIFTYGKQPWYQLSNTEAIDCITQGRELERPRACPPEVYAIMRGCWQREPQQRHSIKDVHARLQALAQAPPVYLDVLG
Procedure: as §1, §2

MAP3K1 = molecular target: T15, MAP3K1 (Homo sapiens, UniProt Q13233); conditions: MAP3K1, 1 μM; read-out: % control
T15 construct: purchased Eurofins
T15 sequence (Q13233 whole entry): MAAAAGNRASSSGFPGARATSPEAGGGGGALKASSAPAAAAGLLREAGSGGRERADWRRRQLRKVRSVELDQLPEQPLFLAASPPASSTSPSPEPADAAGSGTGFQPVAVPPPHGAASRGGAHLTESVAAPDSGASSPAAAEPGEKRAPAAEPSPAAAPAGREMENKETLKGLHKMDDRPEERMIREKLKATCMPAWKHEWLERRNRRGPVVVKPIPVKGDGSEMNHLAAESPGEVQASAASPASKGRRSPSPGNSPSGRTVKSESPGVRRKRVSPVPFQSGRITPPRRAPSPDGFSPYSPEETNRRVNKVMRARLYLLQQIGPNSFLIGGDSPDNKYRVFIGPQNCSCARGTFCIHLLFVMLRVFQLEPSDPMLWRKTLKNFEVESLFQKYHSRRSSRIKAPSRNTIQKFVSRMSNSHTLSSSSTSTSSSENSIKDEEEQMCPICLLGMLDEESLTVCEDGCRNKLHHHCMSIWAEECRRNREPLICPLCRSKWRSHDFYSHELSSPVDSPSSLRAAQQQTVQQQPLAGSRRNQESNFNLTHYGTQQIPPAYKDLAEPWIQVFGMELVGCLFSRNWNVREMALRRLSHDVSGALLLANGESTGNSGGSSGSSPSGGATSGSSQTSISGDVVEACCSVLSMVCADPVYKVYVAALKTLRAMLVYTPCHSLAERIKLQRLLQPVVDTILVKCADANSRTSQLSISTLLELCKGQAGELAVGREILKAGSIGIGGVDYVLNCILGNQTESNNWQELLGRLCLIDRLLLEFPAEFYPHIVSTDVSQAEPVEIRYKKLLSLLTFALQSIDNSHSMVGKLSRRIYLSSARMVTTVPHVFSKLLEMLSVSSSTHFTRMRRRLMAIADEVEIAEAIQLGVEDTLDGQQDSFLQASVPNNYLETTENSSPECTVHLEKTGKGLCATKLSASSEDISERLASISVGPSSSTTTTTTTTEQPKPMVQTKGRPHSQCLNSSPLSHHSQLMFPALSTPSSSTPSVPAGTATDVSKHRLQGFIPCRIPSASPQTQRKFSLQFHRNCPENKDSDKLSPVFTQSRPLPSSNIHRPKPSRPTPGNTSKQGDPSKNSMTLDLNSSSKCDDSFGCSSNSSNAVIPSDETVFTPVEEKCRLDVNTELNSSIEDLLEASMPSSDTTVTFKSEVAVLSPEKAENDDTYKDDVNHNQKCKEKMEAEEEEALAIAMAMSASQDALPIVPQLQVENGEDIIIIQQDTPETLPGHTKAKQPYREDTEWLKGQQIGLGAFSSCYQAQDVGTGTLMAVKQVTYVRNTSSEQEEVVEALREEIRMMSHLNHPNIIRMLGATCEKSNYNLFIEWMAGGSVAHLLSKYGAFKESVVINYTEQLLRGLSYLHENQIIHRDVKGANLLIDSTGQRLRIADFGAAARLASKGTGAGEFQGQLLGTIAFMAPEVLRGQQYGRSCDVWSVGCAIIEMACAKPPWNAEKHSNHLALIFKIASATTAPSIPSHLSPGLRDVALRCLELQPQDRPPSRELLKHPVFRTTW
Procedure: as §1, §2

ERK2 = molecular target: T16, ERK2 (Homo sapiens, UniProt P28482); conditions: ERK2, 1 μM; read-out: % control
T16 construct: purchased Eurofins scanMax® kinase panel
Procedure: as §1, §2

KIT(V559D, T670I) = molecular target: T17, KIT(V559D, T670I) (Homo sapiens, UniProt P10721, T670I/V559D); conditions: read-out: % control
T17 construct: purchased Eurofins
Procedure: as §1, §2

PAK5 = conditions: PAK5, 1 μM
Procedure: as §1, §2

remaining binding at 1 µM (ABL1-phosphorylated): < 10%
remaining binding at 1 µM (IRAK4): < 10%
remaining binding at 1 µM (IRAK3): < 10%
remaining binding at 1 µM (GSK3B): < 10%
remaining binding at 1 µM [1]: < 10%
remaining binding at 1 µM (HIPK3): < 10%
remaining binding at 1 µM (PAK3): < 10%
remaining binding at 1 µM (TRKB): < 10%
remaining binding at 1 µM (DYRK2): < 10%
remaining binding at 1 µM [2]: < 10%
remaining binding at 1 µM (ROCK2): < 10%
remaining binding at 1 µM (GSK3A): < 10%
remaining binding at 1 µM [3]: < 10%
remaining binding at 1 µM (TRKA): < 10%
remaining binding at 1 µM (MAP3K1): < 10%
remaining binding at 1 µM (ERK2): < 10%
remaining binding at 1 µM (KIT(V559D, T670I)): < 10%
% control (PAK5): less than 10 % control
SMILES: COc1ccc2nc(-c3n[nH]c4ccc(C(=O)N[C@H]5CC[C@H](N)C5)cc34)[nH]c2c1 [Example 32, N-((1S,3S)-3-aminocyclopentyl)-3-(6-methoxy-1H-benzo[d]imidazol-2-yl)-1H-indazole-5-carboxamide]
